PMC11783601, “Analogue-Sensitive Inhibition of Histone Demethylases Uncovers Member-Specific Function in Ribosomal Protein Synthesis” (Journal of the American Chemical Society, 2025)
“Also recorded” adds a separate entry of the source.

Test system: nascent protein synthesis in HEK293T cells
Assay: BONCAT: azidohomoalanine incorporation, TAMRA alkyne click, in-gel fluorescence
Assay type: cell-based, human
Source text: Biochemical integrity and robust orthogonality of asKDM4-NOL pairs in cells strongly argue for their applicability in elucidating the regulatory functions of KDM4 members in cellular processes. […] To investigate the role of KDM4A in protein synthesis, we adapted the bioorthogonal noncanonical amino acid tagging (BONCAT) tactic which relies on the translational incorporation of an unnatural amino acid probe into newly synthesized proteins in cells (Figure 5A).[28] HEK293T cells expressing wild type KDM4A or its F185A mutant were treated with n-octyl IOX1 or 6A, and the synthesis of nascent proteins was tracked by pulsing the cells with azidohomoalanine (AHA). Isolated cellular extracts were subjected to copper-catalyzed click ligation with TAMRA alkyne,[50] separated on polyacrylamide gel and visualized at 532 nm light (lmax for TAMRA) to assess AHA incorporation. Overexpression of wild type KDM4A and the as variant (F185A) increased the amount of newly synthesized proteins compared to control vector-transfected cells (Figure 5B). […]
Millipore Ltd.) membrane was cut to size, activated with MeOH for 30 seconds and incubated in 10X SSC buffer for 5 minutes while shaking. The membrane was then placed on a 96-well Bio-Dot microfiltration apparatus (Bio-Rad), washed with 100µL of 10X SSC buffer and the RNA solution was applied, and vacuum filtered. Sample was then rinsed with 100µL of 10X SSC buffer.
The membrane was dried at 37 °C followed by crosslinking for 5 minutes with UV light at 254nm.
Membrane was then subject to the protocol mentioned in the section General Protocol for Western […]
16. Incorporation of Azidohomoalanine in HEK293T cells
HEK293T cells were passaged into a 6 well plate. The cells were grown overnight then transfected with 3 ug of indicated plasmid, KDM4A WT/F185A or KDM4D WT/F189A expression vector, […]
and 6 ug of Thermo Turbofect (FERR0531). KDM4A siRNA was transfected into cells using 10nM siRNA (Thermo 4392420) with 1:2 ug amount of Thermo Turbofect (FERR0531). Cells were washed 4 hours later and fresh DMEM was applied. The next day, the cells were treated with inhibitor (L-leucine NOG) and grown for 24 hours. […] The lysate was quantified with Bradford dye and 40 ug of lysate was incubated with 1 mM Tris[(1-benzyl-1H-1,2,3-triazol-4-yl)methyl]amine (TBTA […]
For analysis of AHA incorporation measured by fixed cell imaging, HEK293-T cells (ATCC CRL-1573) were grown in a 24 well plate (Corning) on poly-D-lysine (Gibco A3890401) treated glass coverslips (ThermoScientific 12-545-81P) overnight and transfected the next day with 500 ng KDM4A WT/F185A or Empty Vector (EV) equivalent using 1:2 ug of Thermo Turbofect (FERR0531). […]

Structure (SMILES) | nascent protein synthesis (TAMRA in-gel fluorescence) (HEK293T cells expressing F185A, 6A) | nascent protein synthesis (TAMRA in-gel fluorescence) (HEK293T cells, endogenous wild type KDM4A, 200 μM 6A) | nascent protein synthesis (TAMRA in-gel fluorescence) (HEK293T cells expressing wild type KDM4A, n-octyl IOX1) | nascent protein synthesis (TAMRA in-gel fluorescence) (HEK293T cells, endogenous KDM4A, 10 μM n-octyl IOX1)
CCCCCCCCOC(=O)C(=O)NC(CC(C)C)C(=O)O [6A, L-Leu octyl-ester NOG] | sharp decline in protein synthesis; also recorded: subsequently inhibited | no effect on protein synthesis; also recorded: failed to inhibit protein synthesis |  | 
CCCCCCCCOC(=O)c1ccc(O)c2ncccc12 [n-octyl IOX1] |  |  | sharp decline in protein synthesis; also recorded: subsequently inhibited | protein synthesis inhibition
